# According to patent US9802997B2, “Peptides and combination of peptides for use in immunotherapy against various tumors” (immatics biotechnologies GmbH, priority 2015, dated 2017):
# Test system: CD8+ T cells of healthy HLA-A*02 donors
# Assay: In vitro immunogenicity: in vitro T-cell priming with aAPCs loaded with peptide/MHC complexes and anti-CD28 antibody, pMHC multimer readout
# Assay type: cell-based, human
# Settings: HLA-A*02 restricted peptides; percentage of positive wells among evaluable
# Source text: In order to obtain information regarding the immunogenicity of the TUMAPs of the present invention, the inventors performed investigations using an in vitro T-cell priming assay based on repeated stimulations of CD8+ T cells with artificial antigen presenting cells (aAPCs) loaded with peptide/MHC complexes and anti-CD28 antibody.
# In order to perform in vitro stimulations by artificial antigen presenting cells loaded with peptide-MHC complex (pMHC) and anti-CD28 antibody, the inventors first isolated CD8+ T cells from fresh HLA-A*02 leukapheresis products via positive selection using CD8 microbeads (Miltenyi Biotec, Bergisch-Gladbach, Germany) of healthy donors obtained from the University clinics Mannheim, Germany, after informed consent. PBMCs and isolated CD8+ lymphocytes were incubated in T-cell medium (TCM) until use consisting of RPMI-Glutamax (Invitrogen, Karlsruhe, Germany) supplemented with 10% heat inactivated human AB serum (PAN-Biotech, Aidenbach, Germany), 100 U/ml Penicillin/100 μg/ml Streptomycin (Cambrex, Cologne, Germany), 1 mM sodium pyruvate (CC Pro, Oberdorla, Germany), 20 μg/ml Gentamycin (Cambrex). 2.5 ng/ml IL-7 (PromoCell, Heidelberg, Germany) and 10 U/ml IL-2 (Novartis Pharma, Nürnberg, Germany) were also added to the TCM at this step. Generation of pMHC/anti-CD28 coated beads, T-cell stimulations and readout was performed in a highly defined in vitro system using four different pMHC molecules per stimulation condition and 8 different pMHC molecules per readout condition.
# The purified co-stimulatory mouse IgG2a anti human CD28 Ab 9.3 (Jung et al., 1987) was chemically biotinylated using Sulfo-N-hydroxysuccinimidobiotin as recommended by the manufacturer (Perbio, Bonn, Germany). Beads used were 5.6 μm diameter streptavidin coated polystyrene particles (Bangs Laboratories, Illinois, USA).
# pMHC used for positive and negative control stimulations were A*0201/MLA-001 (peptide […] (SEQ ID NO. 289) from modified Melan-A/MART-1) and A*0201/DDX5-001 ([…] from DDX5, SEQ ID NO. 290), respectively.
# 800.000 beads/200 μl were coated in 96-well plates in the presence of 4×12.5 ng different biotin-pMHC, washed and 600 ng biotin anti-CD28 were added subsequently in a volume of 200 μl. Stimulations were initiated in 96-well plates by co-incubating 1×10^6 CD8+ T cells with 2×10^5 washed coated beads in 200 μl TCM supplemented with 5 ng/ml IL-12 (PromoCell) for 3 days at 37° C. Half of the medium was then exchanged by fresh TCM supplemented with 80 U/ml IL-2 and incubating was continued for 4 days at 37° C. This stimulation cycle was performed for a total of three times. For the pMHC multimer readout using 8 different pMHC molecules per condition, a two-dimensional combinatorial coding approach was used as previously described (Andersen et al., 2012) with minor modifications encompassing coupling to 5 different fluorochromes. Finally, multimeric analyses were performed by staining the cells with Live/dead near IR dye (Invitrogen, Karlsruhe, Germany), CD8-FITC antibody clone SK1 (BD, Heidelberg, Germany) and fluorescent pMHC multimers. For analysis, a BD LSRII SORP cytometer equipped with appropriate lasers and filters was used. Peptide specific cells were calculated as percentage of total CD8+ cells. Evaluation of multimeric analysis was done using the FlowJo software (Tree Star, Oregon, USA). In vitro priming of specific multimer+CD8+ lymphocytes was detected by comparing to negative control stimulations.
row,Substance,Wells positive [%]
1,246 (ALAGIVTNV; listed as Homo sapiens) [compound 246],+ (<20% = +)
2,242 (KLQEEIPVL; listed as Homo sapiens) [compound 242],+ (<20% = +)
3,35 (VIIKGLEEI; listed as Homo sapiens) [compound 35],+ (<20% = +)
4,34 (TLNTLDINL; listed as Homo sapiens) [compound 34],++++ (>=70% = ++++)
5,97 (KLFEKSTGL; listed as Homo sapiens) [compound 97],+ (<20% = +)
6,4 (VLFGELPAL; listed as Homo sapiens) [compound 4],+ (<20% = +)
7,50 (ILLSVLHQL; listed as Homo sapiens) [compound 50],+ (<20% = +)
8,39 (YLEDGFAYV; listed as Homo sapiens) [compound 39],++++ (>=70% = ++++)
9,254 (ALGDKFLLRV; listed as Homo sapiens) [compound 254],+ (<20% = +)
10,9 (SLITGQDLLSV; listed as Homo sapiens) [compound 9],+ (<20% = +)
11,66 (AMFPDTIPRV; listed as Homo sapiens) [compound 66],+ (<20% = +)
12,14 (YTFSGDVQL; listed as Homo sapiens) [compound 14],+ (<20% = +)
13,257 (KLIDHQGLYL; listed as Homo sapiens) [compound 257],+ (<20% = +)
14,260 (ALNESLVEC; listed as Homo sapiens) [compound 260],+ (<20% = +)
15,264 (TLHDQVHLL; listed as Homo sapiens) [compound 264],+ (<20% = +)
16,233 (SLFESLEYL; listed as Homo sapiens) [compound 233],+ (<20% = +)
17,29 (KMISAIPTL; listed as Homo sapiens) [compound 29],+ (<20% = +)
18,236 (KMSELQTYV; listed as Homo sapiens) [compound 236],+ (<20% = +)
19,77 (ALYGNVQQV; listed as Homo sapiens) [compound 77],+ (<20% = +)
20,17 (GLLPSAESIKL; listed as Homo sapiens) [compound 17],+ (<20% = +)
21,101 (SLLEVNEASSV; listed as Homo sapiens) [compound 101],+ (<20% = +)
22,267 (YLLDMPLWYL; listed as Homo sapiens) [compound 267],+ (<20% = +)
23,255 (FLMKNSDLYGA; listed as Homo sapiens) [compound 255],+ (<20% = +)
24,89 (SLAETIFIV; listed as Homo sapiens) [compound 89],+ (<20% = +)
25,102 (GLYPVTLVGV; listed as Homo sapiens) [compound 102],+ (<20% = +)
26,121 (ALYVQAPTV; listed as Homo sapiens) [compound 121],+ (<20% = +)

# Target: HLA-A*02:01 (Homo sapiens, UniProt P04439, D140Y/D185E/D98H/E176V/E277Q/G131W/G231S/I119V/I121R/I166T/I218V/L300P/L318F/N151K/N90K/P208A/P217A/Q86G/Q94H/R138H/R169H/T345S)
# Assay: MHC binding assay (UV-ligand exchange, beta2m ELISA)
# Settings: binding to HLA-A*02:01, β2m ELISA
# Method in brief: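 UV-exchange pMHC monomers, 100-fold diluted → streptavidin capture 1 h 37 °C → HRP anti-β2m 2 ug/ml 1 h 37 °C → TMB, A450. Yield from HLA-A*02:01/MLA-001 monomer standard curve, 15-500 ng/ml. Only stably bound peptides keep β2m-containing complexes intact.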
row,"Peptide exchange (MHC class I binding score, peptide exchange yield)",Substance
1,+++ (≧50 = +++),246 (ALAGIVTNV; listed as Homo sapiens) [compound 246]
2,+++ (≧50 = +++),242 (KLQEEIPVL; listed as Homo sapiens) [compound 242]
3,++ (≧20% = ++),35 (VIIKGLEEI; listed as Homo sapiens) [compound 35]
4,+++ (≧50 = +++),34 (TLNTLDINL; listed as Homo sapiens) [compound 34]
5,+++ (≧50 = +++),97 (KLFEKSTGL; listed as Homo sapiens) [compound 97]
6,+++ (≧50 = +++),4 (VLFGELPAL; listed as Homo sapiens) [compound 4]
7,+++ (≧50 = +++),50 (ILLSVLHQL; listed as Homo sapiens) [compound 50]
8,+++ (≧50 = +++),39 (YLEDGFAYV; listed as Homo sapiens) [compound 39]
9,++ (≧20% = ++),254 (ALGDKFLLRV; listed as Homo sapiens) [compound 254]
10,+++ (≧50 = +++),9 (SLITGQDLLSV; listed as Homo sapiens) [compound 9]
11,++ (≧20% = ++),66 (AMFPDTIPRV; listed as Homo sapiens) [compound 66]
12,+++ (≧50 = +++),14 (YTFSGDVQL; listed as Homo sapiens) [compound 14]
13,+++ (≧50 = +++),257 (KLIDHQGLYL; listed as Homo sapiens) [compound 257]
14,+++ (≧50 = +++),260 (ALNESLVEC; listed as Homo sapiens) [compound 260]
15,++ (≧20% = ++),264 (TLHDQVHLL; listed as Homo sapiens) [compound 264]
16,+++ (≧50 = +++),233 (SLFESLEYL; listed as Homo sapiens) [compound 233]
17,++ (≧20% = ++),29 (KMISAIPTL; listed as Homo sapiens) [compound 29]
18,+++ (≧50 = +++),236 (KMSELQTYV; listed as Homo sapiens) [compound 236]
19,+++ (≧50 = +++),77 (ALYGNVQQV; listed as Homo sapiens) [compound 77]
20,++++ (≧75% = ++++),17 (GLLPSAESIKL; listed as Homo sapiens) [compound 17]
21,+++ (≧50 = +++),101 (SLLEVNEASSV; listed as Homo sapiens) [compound 101]
22,+++ (≧50 = +++),267 (YLLDMPLWYL; listed as Homo sapiens) [compound 267]
23,+++ (≧50 = +++),255 (FLMKNSDLYGA; listed as Homo sapiens) [compound 255]
24,+++ (≧50 = +++),89 (SLAETIFIV; listed as Homo sapiens) [compound 89]
25,+++ (≧50 = +++),102 (GLYPVTLVGV; listed as Homo sapiens) [compound 102]
26,++ (≧20% = ++),121 (ALYVQAPTV; listed as Homo sapiens) [compound 121]
